Measurements published in ChEMBL document CHEMBL3352227, “Synthesis, antimycobacterial and antibacterial evaluation of l-[(1R, 2S)-2-fluorocyclopropyl]fluoroquinolone derivatives containing an oxime functional moiety” (Eur J Med Chem, 2014).
Converted amounts (≈) assume the structure as drawn.

Columns and labels:
Assay type in all cases: functional
[1] = system: Staphylococcus epidermidis; experiment: Antibacterial activity against methicillin-sensitive Staphylococcus epidermidis 12-6 after 18 to 24 hrs by standard twofold serial dilution method
[2] = system: Streptococcus pneumoniae; experiment: Antibacterial activity against Streptococcus pneumoniae ATCC 49619 after 18 to 24 hrs by standard twofold serial dilution method
[3] = system: Klebsiella pneumoniae; experiment: Antibacterial activity against extended-spectrum beta-lactamase producin Klebsiella pneumoniae 12-14 after 18 to 24 hrs by standard twofold serial dilution method
[4] = system: Klebsiella pneumoniae; experiment: Antibacterial activity against Klebsiella pneumoniae 12-4 after 18 to 24 hrs by standard twofold serial dilution method
[5] = system: Staphylococcus epidermidis; experiment: Antibacterial activity against methicillin-resistant Staphylococcus epidermidis 12-6 after 18 to 24 hrs by standard twofold serial dilution method
[6] = system: Staphylococcus aureus; experiment: Antibacterial activity against methicillin-sensitive Staphylococcus aureus 12-4 after 18 to 24 hrs by standard twofold serial dilution method
[7] = system: Staphylococcus aureus; experiment: Antibacterial activity against methicillin-sensitive Staphylococcus aureus 12-1 after 18 to 24 hrs by standard twofold serial dilution method
[8] = system: Klebsiella pneumoniae; experiment: Antibacterial activity against extended-spectrum beta-lactamase producin Klebsiella pneumoniae 12-7 after 18 to 24 hrs by standard twofold serial dilution method
[9] = system: Staphylococcus aureus; experiment: Antibacterial activity against Staphylococcus aureus ATCC 25923 after 18 to 24 hrs by standard twofold serial dilution method
[10] = system: Klebsiella pneumoniae; experiment: Antibacterial activity against extended-spectrum beta-lactamase producin Klebsiella pneumoniae 12-3 after 18 to 24 hrs by standard twofold serial dilution method
[11] = system: Staphylococcus aureus; experiment: Antibacterial activity against methicillin-sensitive Staphylococcus aureus 12-2 after 18 to 24 hrs by standard twofold serial dilution method
[12] = system: Mycobacterium tuberculosis; experiment: Antimycobacterial activity against Mycobacterium tuberculosis H37Rv ATCC 27294 by MABA method
[13] = system: Escherichia coli; experiment: Antibacterial activity against extended-spectrum beta-lactamase producing Escherichia coli 12-15 after 18 to 24 hrs by standard twofold serial dilution method
[14] = system: Staphylococcus epidermidis; experiment: Antibacterial activity against methicillin-sensitive Staphylococcus epidermidis 12-3 after 18 to 24 hrs by standard twofold serial dilution method
[15] = system: Klebsiella pneumoniae; experiment: Antibacterial activity against Klebsiella pneumoniae 12-2 after 18 to 24 hrs by standard twofold serial dilution method
[16] = system: Klebsiella pneumoniae; experiment: Antibacterial activity against Klebsiella pneumoniae 12-1 after 18 to 24 hrs by standard twofold serial dilution method
[17] = system: Klebsiella pneumoniae; experiment: Antibacterial activity against extended-spectrum beta-lactamase producin Klebsiella pneumoniae 12-4 after 18 to 24 hrs by standard twofold serial dilution method
[18] = system: Staphylococcus epidermidis; experiment: Antibacterial activity against methicillin-sensitive Staphylococcus epidermidis 12-1 after 18 to 24 hrs by standard twofold serial dilution method
[19] = system: Staphylococcus epidermidis; experiment: Antibacterial activity against methicillin-resistant Staphylococcus epidermidis 12-1 after 18 to 24 hrs by standard twofold serial dilution method
[20] = system: Streptococcus pneumoniae; experiment: Antibacterial activity against Streptococcus pneumoniae 12-18 after 18 to 24 hrs by standard twofold serial dilution method
[21] = system: Staphylococcus aureus; experiment: Antibacterial activity against methicillin-resistant Staphylococcus aureus 12-5 after 18 to 24 hrs by standard twofold serial dilution method
[22] = system: Staphylococcus aureus; experiment: Antibacterial activity against methicillin-sensitive Staphylococcus aureus 12-5 after 18 to 24 hrs by standard twofold serial dilution method
[23] = system: Staphylococcus epidermidis; experiment: Antibacterial activity against methicillin-sensitive Staphylococcus epidermidis 12-8 after 18 to 24 hrs by standard twofold serial dilution method
[24] = system: Pseudomonas aeruginosa; experiment: Antibacterial activity against Pseudomonas aeruginosa 12-14 after 18 to 24 hrs by standard twofold serial dilution method
[25] = system: Staphylococcus aureus; experiment: Antibacterial activity against methicillin-resistant Staphylococcus aureus 12-2 after 18 to 24 hrs by standard twofold serial dilution method
[26] = system: Escherichia coli; experiment: Antibacterial activity against Escherichia coli ATCC 25922 after 18 to 24 hrs by standard twofold serial dilution method
[27] = system: Staphylococcus aureus; experiment: Antibacterial activity against methicillin-resistant Staphylococcus aureus 12-4 after 18 to 24 hrs by standard twofold serial dilution method
[28] = system: Escherichia coli; experiment: Antibacterial activity against extended-spectrum beta-lactamase producing Escherichia coli 12-14 after 18 to 24 hrs by standard twofold serial dilution method
[29] = system: Escherichia coli; experiment: Antibacterial activity against extended-spectrum beta-lactamase producing Escherichia coli 12-2 after 18 to 24 hrs by standard twofold serial dilution method
[30] = system: Pseudomonas aeruginosa; experiment: Antibacterial activity against Pseudomonas aeruginosa 12-12 after 18 to 24 hrs by standard twofold serial dilution method
[31] = system: Escherichia coli; experiment: Antibacterial activity against extended-spectrum beta-lactamase producing Escherichia coli 12-3 after 18 to 24 hrs by standard twofold serial dilution method
[32] = system: Escherichia coli; experiment: Antibacterial activity against Escherichia coli 12-1 after 18 to 24 hrs by standard twofold serial dilution method

Row | Compound | MIC [1] | MIC [2] | MIC [3] | MIC [4] | MIC [5] | MIC [6] | MIC [7] | MIC [9] | MIC [10] | MIC [11] | MIC [12] | MIC [13] | MIC [14] | MIC [15] | MIC [16] | MIC [17] | MIC [18] | MIC [19] | MIC [21] | MIC [22] | also measured
1 | O=C(O)c1cn(C2CC2)c2cc(N3CCNCC3)c(F)cc2c1=O [CIPROFLOXACIN] | 0.25 µg/mL (≈ 0.754 µM) | 0.25 µg/mL (≈ 0.754 µM) | 64 µg/mL (≈ 193 µM) | < 0.008 µg/mL | 16 µg/mL (≈ 48.3 µM) | 0.25 µg/mL (≈ 0.754 µM) | 0.25 µg/mL (≈ 0.754 µM) | 0.25 µg/mL (≈ 0.754 µM) | 32 µg/mL (≈ 96.6 µM) | 0.25 µg/mL (≈ 0.754 µM) | 0.25 µg/mL (≈ 0.754 µM) | 64 µg/mL (≈ 193 µM) | 2 µg/mL (≈ 6.04 µM) | 0.03 µg/mL (≈ 0.0905 µM) | 0.125 µg/mL (≈ 0.377 µM) | 4 µg/mL (≈ 12.1 µM) | 0.25 µg/mL (≈ 0.754 µM) | 8 µg/mL (≈ 24.1 µM) | 32 µg/mL (≈ 96.6 µM) | 0.25 µg/mL (≈ 0.754 µM) | MIC [8]: 0.5 µg/mL (≈ 1.51 µM); MIC [20]: 1 µg/mL (≈ 3.02 µM); MIC [23]: 4 µg/mL (≈ 12.1 µM); MIC [24]: 32 µg/mL (≈ 96.6 µM); MIC [25]: 64 µg/mL (≈ 193 µM); MIC [26]: < 0.008 µg/mL; MIC [27]: 64 µg/mL (≈ 193 µM)
2 | NNC(=O)c1ccncc1 [ISONIAZID] | – | – | – | – | – | – | – | – | – | – | 0.05 µg/mL (≈ 0.365 µM) | – | – | – | – | – | – | – | – | – | –
3 | C[C@H]1COc2c(N3CCN(C)CC3)c(F)cc3c(=O)c(C(=O)O)cn1c23.C[C@H]1COc2c(N3CCN(C)CC3)c(F)cc3c(=O)c(C(=O)O)cn1c23.O [LEVOFLOXACIN] | 0.125 µg/mL | 0.125 µg/mL | 16 µg/mL | < 0.008 µg/mL | 32 µg/mL | 0.125 µg/mL | 0.125 µg/mL | < 0.008 µg/mL | 16 µg/mL | 0.125 µg/mL | 0.25 µg/mL | 32 µg/mL | 0.5 µg/mL | < 0.008 µg/mL | 0.06 µg/mL | 8 µg/mL | 0.125 µg/mL | 4 µg/mL | 32 µg/mL | 0.125 µg/mL | MIC [28]: 16 µg/mL; MIC [29]: 16 µg/mL; MIC [23]: 4 µg/mL; MIC [30]: 0.5 µg/mL; MIC [24]: 16 µg/mL; MIC [31]: 32 µg/mL; MIC [25]: 32 µg/mL; MIC [32]: 0.25 µg/mL; MIC [26]: < 0.008 µg/mL; MIC [27]: 32 µg/mL
4 | COc1c(N2C[C@@H]3CCCN[C@@H]3C2)c(F)cc2c(=O)c(C(=O)O)cn(C3CC3)c12 [MOXIFLOXACIN] | 0.03 µg/mL (≈ 0.0747 µM) | 0.06 µg/mL (≈ 0.149 µM) | 64 µg/mL (≈ 159 µM) | 0.03 µg/mL (≈ 0.0747 µM) | 16 µg/mL (≈ 39.9 µM) | < 0.008 µg/mL | 0.015 µg/mL (≈ 0.0374 µM) | < 0.008 µg/mL | 32 µg/mL (≈ 79.7 µM) | < 0.008 µg/mL | – | 32 µg/mL (≈ 79.7 µM) | 0.125 µg/mL (≈ 0.311 µM) | 0.06 µg/mL (≈ 0.149 µM) | 0.015 µg/mL (≈ 0.0374 µM) | 0.5 µg/mL (≈ 1.25 µM) | 0.03 µg/mL (≈ 0.0747 µM) | 0.25 µg/mL (≈ 0.623 µM) | 8 µg/mL (≈ 19.9 µM) | 0.015 µg/mL (≈ 0.0374 µM) | MIC [8]: 0.5 µg/mL (≈ 1.25 µM); MIC [29]: 32 µg/mL (≈ 79.7 µM); MIC [20]: 0.5 µg/mL (≈ 1.25 µM); MIC [23]: 1 µg/mL (≈ 2.49 µM); MIC [30]: 2 µg/mL (≈ 4.98 µM); MIC [24]: 16 µg/mL (≈ 39.9 µM); MIC [31]: 64 µg/mL (≈ 159 µM); MIC [25]: 8 µg/mL (≈ 19.9 µM); MIC [32]: 0.5 µg/mL (≈ 1.25 µM); MIC [26]: < 0.008 µg/mL; MIC [27]: 8 µg/mL (≈ 19.9 µM)
5 | CO[C@H]1/C=C/O[C@@]2(C)Oc3c(C)c(O)c4c(O)c(c(/C=N/N5CCN(C)CC5)c(O)c4c3C2=O)NC(=O)/C(C)=C\C=C\[C@H](C)[C@H](O)[C@@H](C)[C@@H](O)[C@@H](C)[C@H](OC(C)=O)[C@@H]1C [RIFAMPIN] | – | – | – | – | – | – | – | – | – | – | 0.05 µg/mL (≈ 0.0608 µM) | – | – | – | – | – | – | – | – | – | –
